Here are results for 1 compound from patent US20180028553A1, “USE OF STING AGONIST AS CANCER TREATMENT” (The University of Chicago, priority 2013, published 2018).

SMILES strings stand for the structures. “Also recorded” adds a separate entry of the source.

Test [1] deals with TRAMP-C2 tumors. Put plainly: Intratumoral treatment of TRAMP-C2 tumors. It counts as in vivo, mouse. Particulars: C57BL/6 mice, single IT dose of 500 μg DMXAA. The protocol:
(§1) In vivo tumor experiments. 10^6 of B16-SIY tumor cells, 5×10^4 B16.F10 tumor cells, 10^5 4T1 and CT26, or 10^6 other tumor cells were injected s.c. in 100 μl DPBS or HBSS on the right flank of mice. Following tumor implantation, mice were randomized into treatment groups. […] Measurements of tumors were performed twice per week using calipers, and the tumor volume was calculated with the formula: V=(length×width^2)/2. In some experiments, tumor-free survivors were rechallenged with tumor cells on the opposite flank several weeks after the injection of the primary tumor. Naïve mice were used as controls. For the contralateral experiments, mice were implanted on both flanks and only one tumor was treated. For the B16 melanoma lung metastasis experiments, mice were implanted on the flank with 5×10^4 cells B16.F10 on day 0, and then injected intravenously with 1×10^5 cells on day 7. Lungs were harvested on day 28. Administration of compounds, measurements of tumors and counting of lung tumors were performed in a blinded fashion.

Test [2] has as its system B16.F10 tumors. Put plainly: Intratumoral treatment of established B16.F10 tumors. It counts as in vivo, mouse. Conditions: C57BL/6 mice, single IT dose of 500 μg DMXAA. As for the experimental part: as §1
Test [3] has as its system SIY antigen. Put plainly: IFN-γ ELISPOT and SIY-pentamer staining in B16.SIY tumor-bearing mice. It counts as in vivo, mouse. The protocol:
The mouse IFN-γ enzyme-linked Immunospot assay (ELISPOT) from BD is used according to the manufacturer's protocol. In brief, splenocytes are plated at 10^6 cells/well and stimulated overnight with SIY peptide (160 nM), PMA (50 ng/ml) and ionomycin (0.5 μM) as positive control, or medium (DMEM supplemented with 10% heat-inactivated FCS, penicillin, streptomycin, L-arginine, L-glutamine, folic acid, and L-asparagine) as negative control. IFN-γ spots are detected using biotinylated antibody and avidin-peroxidase and developed using AEC substrate (BD Bioscience). Plates are read in an Immunospot Series 3 Analyzer and analyzed with ImmunoSpot software (Cellular Technology Ltd).
5×10^6 cells/sample are labeled with PE-MHC class I tetramers (Beckman Coulter or Proimmune) consisting of murine H-2Kb complexed to either […] (SIY) peptide or […] (OVA) peptide as a negative control, anti-TCRβ-AF700 (clone H57-597), antiCD8-PO (clone 5H10), anti-CD4-PB (clone RM4-5), anti CD62L-PE_Cy7 (clone MEL-14), anti-CD44-APC (clone IM7) and the Fixable Viability dye eFluor780 (eBioScience). FACS analysis is performed using FACSCanto or LSR II cytometers with FACSDiva software (BD). Data analysis is conducted with FlowJo software (Tree Star).
IFN-γ ELISPOT and SIY-pentamer staining. […] For the ELISPOTs, 10^6 splenocytes were plated per well and stimulated overnight with SIY peptide (160 nM) or AH1 (1 μM) peptide, with PMA (50 ng/ml) plus ionomycin (0.5 μM) as a positive control, or medium as negative control. Spots were developed using the BD mouse IFN-γ kit according to the manufacturer's instructions and the number of spots was measured using an Immunospot Series 3 Analyzer and analyzed using ImmunoSpot software (Cellular Technology Ltd). For SIY-pentamer staining, splenocytes were preincubated for 15 min with anti-CD16/32 monoclonal antibody (93) to block potential nonspecific binding, and labeled with PE-MHC class I pentamer (Proimmune) consisting of murine H-2K^b complexed to […] (SIY) peptide, anti-TCRβ-AF700 (H57-597), anti-CD8-Pacific Blue (53-6.7), anti-CD4-Pacific Orange (RM4-5) (all antibodies from BioLegend) and the Fixable Viability Dye eFluor 450 (eBioscience). Stained cells were analyzed using LSR II cytometer with FACSDiva software (BD). Data analysis was conducted with FlowJo software (Tree Star).

Test [4] relates to tumors. Particulars: background statement; cited from earlier work.
Test [5] deals with STING pathway (TBK1, IRF3 phosphorylation). Put plainly: Western blot of pTBK1 and pIRF3 in macrophages and BM-DCs after STING agonist. It counts as cell-based, mouse. As for the experimental part:
DMXAA for the same time-points. Proteins were extracted with Triton-X buffer (150 mM sodium chloride, 50 mM Tris, 1% Triton-X, pH 8.0) with proteinase inhibitors (Thermo scientific) and phosphatase inhibitors (Sigma). 30 μg of protein was electrophoresed in 10% SDS-PAGE gels and transferred onto Immobilon-FL membranes (Millipore). Blots were incubated with antibodies specific for phosphorylated TBK1 (Ser172), phosphorylated IRF3 (Ser396), total TBK1, STING and GAPDH (Cell Signaling) or total IRF3 (Invitrogen). Proteins from HEK 293T lines stably expressing STING were extracted with M-PER (Thermo Scientific). 6 μg of protein was loaded onto a 4-12% MES NuPAGE gel (Life Technologies), transferred to nitrocellulose, and probed with anti-HA antibody (Santa Cruz). Anti-rabbit IRDye 680RD label secondary antibody was used for visualization of bands with the Odyssey Imaging system (LI-COR).
In general terms: In western blotting, separated proteins are transferred to a membrane and probed.

Test [6] relates to Ag104L tumors. Put plainly: Intratumoral treatment of Ag104L tumors. Conditions: C3H mice, single IT dose of 500 μg DMXAA. It counts as in vivo, mouse. The protocol:
as §1

Test [7] deals with 4T-1 tumors. Put plainly: Intratumoral treatment of 4T-1 tumors. It counts as in vivo, mouse. Particulars: BALB/c mice, single IT dose of 500 μg DMXAA. As for the experimental part:
as §1

In test [8] the test system is innate cytokines in BM-DCs. Put plainly: Quantitative RT-PCR analysis of cytokines in BM-DCs. It counts as cell-based, mouse. Conditions: DMXAA 25 μg/ml, 4 h. The protocol: Quantitative RT-PCR analysis of cytokines. […] Total RNA was isolated using the RNeasy® kit (Qiagen) and incubated with Deoxyribonuclease I, Amplification Grade (Invitrogen). cDNA was synthesized using High Capacity cDNA Reverse Transcription Kit (Applied Biosystem) and expression of cytokines was measured by real-time qRT-PCR using specific primers/probes for mouse INF-β, TNF-α, IL-6 and IL-12p40, using a 7300 Real Time PCR system (Applied Biosystem). The results are expressed as 2^−ΔCt using 18s as endogenous control.

In test [9] the test system is B16.SIY tumors. It counts as in vivo. The protocol:
As a comparison, the cyclic dinucleotide compounds from Aduro will be injected into tumors in parallel sets of mice. Tumor volumes are estimated twice a week using the formula described above.
as §1

For the compound `Cc1ccc2c(=O)c3cccc(CC(=O)O)c3oc2c1C` [DMXAA, 5,6-dimethylXAA (xanthenone-4-acetic acid)], the tumor growth result in [1], in [2], in test [6] and in test [7] was “significantly reduced the growth” in each case. Also, in [3] (STING^−/− mice), the “frequencies of SIY-specific T cells” value is “markedly reduced”. In test [3] (WT mice, spleens (b243 also tumors), after IT DMXAA), the “SIY-specific CD8+ T cells by SIY pentamer staining” value is “higher amount of CD8+ SIY specific T cells; also recorded: high frequency of SIY-specific CD8^+ T cells”. Also, the “endogenous T cell response against SIY (ELISPOT and CD8 SIY positive cells in spleen and tumors)” value in [3] (one week after injection) is listed as “highly increased”. In addition, in [3] (one week after injection, versus saline), the “increase in number of specific T cells producing IFN-g upon stimulation with SIY (ELISPOT)” value is 10 fold. In addition, the “frequency of SIY-specific IFN-γ-producing T cells (ELISPOT)” value in [3] (splenocytes 5 days after treatment, 500 μg IT, WT mice) is on record as “marked increase”. In addition, the antitumor effect entry in [4] is “induced haemorrhagic necrosis and tumour regression”. Besides, in test [5] (BM-DC from WT or STING ko mice), the “activation of the STING pathway (pTBK1, pIRF3)” value is “same potent activation of the pathway”. Further, the “phosphorylation of TBK1 and IRF3” value is “not in STING deficient cells; also recorded: abolished” in [5] (STING deficient macrophages, DMXAA 50 μg/ml); “restored phosphorylation of TBK1 and IRF3” in test [5] (STING^−/− macrophages reconstituted with mSTING-HA, DMXAA); “rapid and potent phosphorilation of TBK1 and IRF3; also recorded: phosphorylation of TBK1 and IRF3 was observed” in test [5] (WT macrophages, DMXAA 50 μg/ml or ML RR-S2 CDA 50 μM). The “expression of innate cytokines” value was “not STING^−/− BM-DCs” in test [8] (STING^−/− BM-DCs); “upregulated other cytokines such as TNFα, IL6, IL1, IL10, and IL12 in a STING dependent manner; also recorded: IFN-β, TNF-α, IL-1β, IL-6 and IL12p35 were induced” in test [8] (WT BM-DCs). Moreover, the “mice that reject the tumors” value in test [9] (WT B6 mice, tumors 100-200 mm3, single intratumoral dose) is 80-90%. Also, in test [9] (WT mice, single IT dose of 500 μg at day 7), the “tumor regression and rejection” value is “potent tumor regression in all animals and complete tumor rejection in the majority of mice”. Also, the “regression of injected and non-injected secondary tumor” value in [9] (tumors in both flanks, only one treated IT) is “Tumor regression was observed in both sites”.
